Source: ChEMBL document CHEMBL3393043, “Computer-aided identification of novel anticancer compounds with a possible dual HER1/HER2 inhibition mechanism” (Bioorg Med Chem Lett, 2015)

Assays:
[1] = Antiproliferative activity against human BT474 cells overexpressing HER2 at 10 uM by MTT assay; format: functional; conditions: BT-474
[2] = target: T1, Receptor tyrosine-protein kinase erbB-2 (Homo sapiens, UniProt P04626); assay: Inhibition of human full length HER2 assessed as phosphorylation state by ELISA assay
T1 sequence (P04626 whole entry): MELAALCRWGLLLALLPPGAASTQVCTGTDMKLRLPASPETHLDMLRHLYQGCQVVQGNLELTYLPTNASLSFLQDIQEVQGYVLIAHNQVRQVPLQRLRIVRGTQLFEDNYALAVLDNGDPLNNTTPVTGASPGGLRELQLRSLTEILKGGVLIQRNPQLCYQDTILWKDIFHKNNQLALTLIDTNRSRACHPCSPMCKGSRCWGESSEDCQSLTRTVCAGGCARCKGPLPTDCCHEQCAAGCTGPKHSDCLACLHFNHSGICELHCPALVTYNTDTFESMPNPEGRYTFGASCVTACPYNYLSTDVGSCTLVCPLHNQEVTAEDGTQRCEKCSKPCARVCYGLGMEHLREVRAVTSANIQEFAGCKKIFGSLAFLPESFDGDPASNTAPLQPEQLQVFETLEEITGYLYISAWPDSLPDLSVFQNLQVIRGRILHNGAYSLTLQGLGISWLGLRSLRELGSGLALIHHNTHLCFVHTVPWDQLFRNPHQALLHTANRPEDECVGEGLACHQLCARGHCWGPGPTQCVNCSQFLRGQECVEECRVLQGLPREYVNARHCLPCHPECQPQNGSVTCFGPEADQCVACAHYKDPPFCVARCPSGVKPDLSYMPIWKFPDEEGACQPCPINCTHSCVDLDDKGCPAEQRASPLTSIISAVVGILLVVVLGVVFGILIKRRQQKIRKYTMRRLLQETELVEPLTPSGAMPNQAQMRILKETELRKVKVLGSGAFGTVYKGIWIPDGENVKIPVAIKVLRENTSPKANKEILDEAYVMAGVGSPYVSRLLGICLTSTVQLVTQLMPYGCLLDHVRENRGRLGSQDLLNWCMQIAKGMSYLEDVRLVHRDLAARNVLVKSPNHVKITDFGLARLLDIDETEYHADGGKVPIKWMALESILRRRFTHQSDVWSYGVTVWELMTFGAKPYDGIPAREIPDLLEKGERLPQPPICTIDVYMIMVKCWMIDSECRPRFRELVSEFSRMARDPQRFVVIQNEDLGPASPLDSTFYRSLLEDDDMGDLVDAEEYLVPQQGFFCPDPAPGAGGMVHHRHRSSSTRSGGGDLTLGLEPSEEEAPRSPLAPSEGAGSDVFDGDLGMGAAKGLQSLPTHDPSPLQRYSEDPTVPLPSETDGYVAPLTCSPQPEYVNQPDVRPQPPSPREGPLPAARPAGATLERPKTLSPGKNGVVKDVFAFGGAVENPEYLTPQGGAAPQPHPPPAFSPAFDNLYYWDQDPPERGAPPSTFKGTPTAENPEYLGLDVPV

[3] = Antiproliferative activity against human SKBR3 cells overexpressing HER2 at 10 uM by MTT assay; format: functional; conditions: SK-BR-3
[4] = target: T2, Epidermal growth factor receptor (Homo sapiens, UniProt P00533); assay: Inhibition of human full length HER1 assessed as phosphorylation state by ELISA assay
T2 sequence (P00533 whole entry): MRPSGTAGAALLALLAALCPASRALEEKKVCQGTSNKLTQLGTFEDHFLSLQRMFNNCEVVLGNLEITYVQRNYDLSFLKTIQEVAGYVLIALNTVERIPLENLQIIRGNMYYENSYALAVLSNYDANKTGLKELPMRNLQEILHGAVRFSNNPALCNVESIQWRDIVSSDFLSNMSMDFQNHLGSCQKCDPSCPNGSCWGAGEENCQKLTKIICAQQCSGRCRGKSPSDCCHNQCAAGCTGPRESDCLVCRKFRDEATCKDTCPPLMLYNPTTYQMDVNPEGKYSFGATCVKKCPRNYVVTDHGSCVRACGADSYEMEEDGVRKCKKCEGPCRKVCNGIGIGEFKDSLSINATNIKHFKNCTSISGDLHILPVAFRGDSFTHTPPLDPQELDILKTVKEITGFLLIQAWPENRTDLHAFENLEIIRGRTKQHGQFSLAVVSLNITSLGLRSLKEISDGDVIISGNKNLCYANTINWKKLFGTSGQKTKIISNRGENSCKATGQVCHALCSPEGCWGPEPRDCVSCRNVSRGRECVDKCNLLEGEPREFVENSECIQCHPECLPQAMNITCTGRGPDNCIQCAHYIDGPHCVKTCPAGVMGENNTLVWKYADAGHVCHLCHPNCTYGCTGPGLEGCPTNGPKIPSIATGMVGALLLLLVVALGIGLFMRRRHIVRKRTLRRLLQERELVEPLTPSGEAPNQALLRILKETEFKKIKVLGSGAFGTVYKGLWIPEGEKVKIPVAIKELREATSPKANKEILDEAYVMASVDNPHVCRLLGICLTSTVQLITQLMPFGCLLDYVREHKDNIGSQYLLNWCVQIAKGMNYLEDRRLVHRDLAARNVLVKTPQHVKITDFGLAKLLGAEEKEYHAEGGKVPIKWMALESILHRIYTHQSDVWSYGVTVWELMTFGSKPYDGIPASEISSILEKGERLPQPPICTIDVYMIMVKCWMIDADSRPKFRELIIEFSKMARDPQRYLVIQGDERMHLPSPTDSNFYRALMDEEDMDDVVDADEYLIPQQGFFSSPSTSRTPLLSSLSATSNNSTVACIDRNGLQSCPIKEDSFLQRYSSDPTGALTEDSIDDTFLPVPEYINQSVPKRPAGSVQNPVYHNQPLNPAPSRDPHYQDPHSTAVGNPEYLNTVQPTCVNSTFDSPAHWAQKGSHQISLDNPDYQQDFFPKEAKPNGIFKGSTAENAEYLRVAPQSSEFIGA

[5] = Antiproliferative activity against human BT474 cells overexpressing HER2 by MTT assay; format: functional, cell-based; conditions: BT-474
[6] = Antiproliferative activity against human SKBR3 cells overexpressing HER2 by MTT assay; format: functional, cell-based; conditions: SK-BR-3
[7] = target: T1, Receptor tyrosine-protein kinase erbB-2; assay: Inhibition of human full length HER2 assessed as phosphorylation state at 10 uM by ELISA assay
[8] = target: T2, Epidermal growth factor receptor; assay: Inhibition of human full length HER1 assessed as phosphorylation state at 10 uM by ELISA assay

inhibition [7] | inhibition [8] | SMILES | inhibition at 10 µM [1] | IC50 [5] | IC50 [6] | other results
– | – | N#Cc1cnn(-c2ccccc2)c1NC(=O)CSc1nnc(-c2ccco2)n1-c1ccc(F)cc1 | 9.56% | – | – | –
– | – | O=C(Cc1c[nH]c2ccccc12)NNC(=S)Nc1ncccc1Br | – | – | – | IC50 [2]: 12.4 µM; inhibition at 10 µM [3]: 71.5%; IC50 [4]: 8.49 µM
67.1% | 80.5% | O=[N+]([O-])c1cc(-c2ccc(/C=N/c3nc4ccccn4c3-c3ccco3)o2)ccc1Cl | 77% | 1.1 µM | 3.17 µM | –
– | – | Brc1cccnc1Nc1nnc(Cc2c[nH]c3ccccc23)o1 | – | – | – | inhibition at 10 µM [3]: 37.2%
– | – | c1cncc(Nc2nnc(Cc3c[nH]c4ccccc34)o2)c1 | – | – | – | inhibition at 10 µM [3]: 33.4%
– | – | O=C(Cc1c[nH]c2ccccc12)NNC(=S)Nc1cccnc1 | – | – | – | inhibition at 10 µM [3]: 21.2%
72.1% | 81.8% | Nc1ncn(Cc2ccccc2)c2nc(SCCOc3ccccc3F)nc1-2 | 61.4% | 0.426 µM | 2.26 µM | –
– | – | O=C(COC(=O)c1cc(O)nc2ccccc12)c1ccc2ccccc2c1 | 17% | – | – | –
– | – | COc1nc(N/N=C/c2ccc(-c3ccc(Cl)c([N+](=O)[O-])c3)o2)nc(N2CCOCC2)n1 | 39.8% | – | – | –
75.1% | 76.1% | O=C(CSc1nnc2ccc(-c3ccccc3)nn12)NC(=O)Nc1ccccc1 | 52.7% | 0.802 µM | 1.64 µM | –
– | – | COc1ccccc1OCC(=O)Nc1cccc(-c2nc3ccccc3c(=O)o2)c1 | 35% | – | – | –
85.8% | 83% | Cc1ccc2c(C)nc(Nc3nc(O)cc(CSc4nnnn4-c4ccccc4)n3)nc2c1 | 72.7% | 0.755 µM | 1.03 µM | IC50 [2]: 6.03 µM; IC50 [4]: 3.92 µM
– | – | O=C(CSc1nc(-c2cccs2)cc(C(F)(F)F)n1)Nc1ccc2c(c1)OCO2 | 47.9% | – | – | –
67% | 83.9% | Cc1ccc(C(=O)COc2cccc(-c3cnc4ccccc4n3)c2)cc1 | 56.2% | 0.314 µM | 3.11 µM | –
73.1% | 79.9% | Brc1cccc(CNc2ccc(-c3nc4ccccc4o3)cc2)c1 | 51.8% | 0.343 µM | 1.24 µM | –
– | – | Cc1nnc2sc(-c3ccc(NCc4ccc(F)cc4)cc3)nn12 | 51% | – | – | –
– | – | CN1C(=O)C(O)(CC(=O)c2cccc(-n3cccc3)c2)c2ccccc21 (configuration not stated) | 7.25% | – | – | –
– | – | c1ccc(-n2nnnc2Oc2cccc(CNCc3ccc4c(c3)OCO4)c2)cc1 | 27.2% | – | – | –
– | – | Cc1ccn2c(C(=O)N/N=C/c3cn(-c4ccccc4)nc3-c3cccs3)c(C)nc2c1 | 48.2% | – | – | –
